Target: T1, ggTas2r2 (Gallus gallus, UniProt A0A1D5PXM6)
T1 construct: gene LOC101747503; transient expression in HEK 293T stably expressing Galpha16gust44; printed residues Gly85, Trp88, Asn92, Tyr180, Leu184, Tyr243, Ser246, Gln250
T1 sequence (A0A1D5PXM6 1-311): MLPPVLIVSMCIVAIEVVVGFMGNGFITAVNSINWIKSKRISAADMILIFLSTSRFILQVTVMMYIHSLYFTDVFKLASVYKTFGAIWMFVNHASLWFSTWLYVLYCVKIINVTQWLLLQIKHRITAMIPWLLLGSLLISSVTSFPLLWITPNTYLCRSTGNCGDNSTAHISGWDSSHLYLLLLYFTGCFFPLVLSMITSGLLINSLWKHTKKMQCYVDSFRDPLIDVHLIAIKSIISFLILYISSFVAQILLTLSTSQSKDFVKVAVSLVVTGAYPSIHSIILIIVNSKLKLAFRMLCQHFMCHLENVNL
Test: calcium mobilization, Fluo4-AM, FLIPR, dose-response
Assay type: cell-based
Conditions: agonist; HEK 293T with Galpha16gust44; 2.5 mM probenecid at loading

SMILES	calcium mobilization, Fluo4-AM, FLIPR, dose-response
C=C[C@H]1CN2CC[C@H]1C[C@@H]2[C@H](O)c1ccnc2ccc(OC)cc12 [epiquinidine]	Epiquinidine and ethylhydrocupreine can still activate ggTas2r2 and ggTas2r7
CCOc1ccc2nccc([C@@H](O)[C@@H]3C[C@@H]4CCN3C[C@@H]4CC)c2c1 [ethylhydrocupreine]	Epiquinidine and ethylhydrocupreine can still activate ggTas2r2 and ggTas2r7
